Assay results from patent US6706663B2, “Herbicidal 3-heterocyclic substituted benzisothiazole and benzisoxazole compounds” (Wyeth, priority 2000, dated 2004).

Experiments:
[1] = system: ECHORC (Echinochloa oryzoides); test: Flooded paddy, preemergence weed control; format: in vivo, Echinochloa oryzoides (Ard.) Fritsch.; conditions: rated 3-4 weeks after treatment, 0-9 rating scale
Procedure, shortened: (§1)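 Seeds or propagules were planted in the top 0.5 cm of silt loam soil and kept flooded 1.5–3 cm above the surface throughout, then held in the greenhouse. Injury was rated visually on a 0–9 scale against untreated controls, covering stand, vigor, malformation, size and chlorosis.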

[2] = system: SAGPY (Sagittaria pygmaea); test: Flooded paddy, preemergence weed control; format: in vivo, L.; conditions: rated 3-4 weeks after treatment, 0-9 rating scale
Procedure, shortened: as §1

[3] = system: ECHCG (Echinochloa crus-galli); test: Postemergence herbicidal evaluation; format: in vivo, (L.) Beau; conditions: postemergence
Procedure, shortened: (§2)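 Seedlings grown for about two weeks were sprayed postemergence and then kept under standard greenhouse care. Injury was rated visually 4–5 weeks after treatment on a 0–9 scale against untreated controls, and ratings from repeat tests were averaged.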

GALAP (Galium aparine) [4] = test: Postemergence herbicidal evaluation; format: in vivo; conditions: postemergence
Procedure, shortened: as §2

GALAP (Galium aparine) [5] = test: Preemergence herbicidal evaluation; format: in vivo; conditions: rated 4-5 weeks after treatment
Procedure, shortened: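 Test compound is applied in aqueous acetone to cups just after seeding. Cups are watered and maintained on greenhouse benches. Each cup is scored 0–9 by eye relative to a control after four to five weeks.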

ZEAMX (Corn, Field) = test: Postemergence herbicidal evaluation; format: in vivo, Zea mays, L.; conditions: postemergence
Procedure, shortened: as §2

[6] = system: TRZAWR (Wheat, Winter, cv Riband); test: Postemergence herbicidal evaluation; format: in vivo, Triticum aestivum; conditions: postemergence
Procedure, shortened: as §2

ORYSAT (Rice, Tebonnet) = test: Preemergence herbicidal evaluation; format: in vivo, Oryza sativa, (L.) Tebonnet; conditions: rated 4-5 weeks after treatment
SETVI (Setaria viridis) = test: Postemergence herbicidal evaluation; format: in vivo, (L.) Beau; conditions: postemergence
Procedure, shortened: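 Seedlings about two weeks old were sprayed with compound in 50/50 acetone/water plus 0.5% TWEEN 20, at the equivalent of about 0.0040 to 1.000 kg/ha. Plants were kept in a greenhouse and visually rated 0-9 against a control four to five weeks after treatment. Repeat tests were averaged.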

[7] = preemergence, rate 0.0620 kg/ha
[8] = preemergence, rate 0.1250 kg/ha
[9] = preemergence, rate 0.2500 kg/ha

| Compound | ECHCG herbicidal rating ([3]; rate 0.0320 kg/ha) | ECHCG herbicidal rating ([3]; rate 0.0620 kg/ha) | GALAP herbicidal rating (GALAP (Galium aparine) [4]; rate 0.0320 kg/ha) | GALAP herbicidal rating (GALAP (Galium aparine) [4]; rate 0.0620 kg/ha) | Preemergence herbicidal rating GALAP (GALAP (Galium aparine) [5]; [7]) | ZEAMX herbicidal rating (ZEAMX (Corn, Field); rate 0.0320 kg/ha) | ZEAMX herbicidal rating (ZEAMX (Corn, Field); rate 0.0620 kg/ha) | TRZAWR herbicidal rating ([6]; rate 0.0320 kg/ha) | TRZAWR herbicidal rating ([6]; rate 0.0620 kg/ha) | SETVI herbicidal rating (SETVI (Setaria viridis); rate 0.0320 kg/ha) | SETVI herbicidal rating (SETVI (Setaria viridis); rate 0.0620 kg/ha) | herbicidal rating, ECHORC ([1]; rate 0.0080 kg/ha) | herbicidal rating, ECHORC ([1]; rate 0.0320 kg/ha) | herbicidal rating, ECHORC ([1]; rate 0.1250 kg/ha) | herbicidal rating, SAGPY ([2]; rate 0.0080 kg/ha) | herbicidal rating, SAGPY ([2]; rate 0.0320 kg/ha) | herbicidal rating, SAGPY ([2]; rate 0.1250 kg/ha) | Preemergence herbicidal rating GALAP (GALAP (Galium aparine) [5]; Rate 0.1250 kg/ha) | Preemergence herbicidal rating ORYSAT (ORYSAT (Rice, Tebonnet); Rate 0.0620 kg/ha) | Preemergence herbicidal rating ORYSAT (ORYSAT (Rice, Tebonnet); Rate 0.1250 kg/ha) | also measured |
| --- | --- | --- | --- | --- | --- | --- | --- | --- | --- | --- | --- | --- | --- | --- | --- | --- | --- | --- | --- | --- | --- |
| Cn1c(C(F)(F)F)cc(=O)n(-c2ccc3snc(C4OCC(C[S+](C)[O-])O4)c3c2)c1=O (stereo not shown) [Compound 88, 1-methyl-3-[3-[4-[(methylsulfinyl)methyl]-1,3-dioxolan-2-yl]-1,2-benzisothiazol-5-yl]-6-(trifluoromethyl)uracil] | 5.0 | 5.0 | 9.0 | 9.0 | 7.0 | 4.0 | 5.0 | 3.0 | 3.5 | 9.0 | 9.0 |  |  |  |  |  |  |  |  |  | ECHORC herbicidal rating ([1]; rate 0.0320 kg/ha): 0.0; ECHORC herbicidal rating ([1]; rate 0.1250 kg/ha): 0.0; SAGPY herbicidal rating ([2]; rate 0.0320 kg/ha): 0.0; SAGPY herbicidal rating ([2]; rate 0.1250 kg/ha): 0.0; Preemergence herbicidal rating GALAP (GALAP (Galium aparine) [5]; [8]): 9.0; Preemergence herbicidal rating GALAP (GALAP (Galium aparine) [5]; [9]): 9.0; Preemergence herbicidal rating ORYSAT (ORYSAT (Rice, Tebonnet); [7]): 4.0; Preemergence herbicidal rating ORYSAT (ORYSAT (Rice, Tebonnet); [8]): 5.0; Preemergence herbicidal rating ORYSAT (ORYSAT (Rice, Tebonnet); [9]): 8.0 |
| Cn1c(C(F)(F)F)cc(=O)n(-c2ccc3snc(C4OCC(c5ccccc5)O4)c3c2)c1=O (stereo not shown) [Compound 78, 1-methyl-3-[3-(4-phenyl-1,3-dioxolan-2-yl)-1,2-benzisothiazol-5-yl]-6-(trifluoromethyl)uracil] | 2.0 | 3.0 | 4.0 | 7.0 |  | 3.5 | 3.5 | 3.5 | 5.0 | 7.0 | 9.0 | 8.0 | 9.0 | 9.0 | 0.0 | 1.0 | 9.0 | 7.0 | 2.0 | 2.5 | Preemergence herbicidal rating GALAP (GALAP (Galium aparine) [5]; Rate 0.0620 kg/ha): 7.0; Preemergence herbicidal rating GALAP (GALAP (Galium aparine) [5]; Rate 0.2500 kg/ha): 7.0; Preemergence herbicidal rating ORYSAT (ORYSAT (Rice, Tebonnet); Rate 0.2500 kg/ha): 3.0 |
| Cn1c(C(F)(F)F)cc(=O)n(-c2ccc3snc(C4OCC5(CO4)CO5)c3c2)c1=O (stereo not shown) [Compound 70, 1-methyl-3-(3-spiro[m-dioxane-5,2′-oxiran]-2-yl-1,2-benzisothiazol-5-yl)-6-(trifluoromethyl)uracil] | 3.0 | 4.0 | 8.0 | 9.0 |  | 6.5 | 7.0 | 5.0 | 5.5 | 9.0 | 9.0 | 0.0 | 0.0 | 0.0 | 0.0 | 0.0 | 0.0 | 9.0 | 3.0 | 6.0 | Preemergence herbicidal rating GALAP (GALAP (Galium aparine) [5]; Rate 0.0620 kg/ha): 7.0 |
| CC1=CC(C)(C)OC(c2nsc3ccc(-n4c(=O)cc(C(F)(F)F)n(C)c4=O)cc23)C1 (stereo not shown) [Compound 65, 3-[3-(3,6-dihydro-4,6,6-trimethyl-2H-pyran-2-yl)-1,2-benzisothiazol-5-yl]-1-methyl-6-(trifluoromethyl)uracil] | 4.0 | 5.0 | 5.0 | 6.0 |  | 5.0 | 5.5 | 4.0 | 5.0 | 3.0 | 7.0 | 0.0 | 0.0 | 7.0 | 0.0 | 0.0 | 0.0 | 7.0 | 7.0 | 7.0 | Preemergence herbicidal rating GALAP (GALAP (Galium aparine) [5]; Rate 0.0620 kg/ha): 5.0; Preemergence herbicidal rating GALAP (GALAP (Galium aparine) [5]; Rate 0.2500 kg/ha): 7.0; Preemergence herbicidal rating ORYSAT (ORYSAT (Rice, Tebonnet); Rate 0.2500 kg/ha): 9.0 |
| CSCC1COC(c2nsc3ccc(-n4c(=O)cc(C(F)(F)F)n(C)c4=O)cc23)O1 (stereo not shown) [Compound 84, 1-methyl-3-[3-[4-[(methylthio)methyl]-1,3-dioxolan-2-yl]-1,2-benzisothiazol-5-yl]-6-(trifluoromethyl)uracil] | 4.5 | 6.5 | 6.5 | 7.5 | 7.0 | 4.8 | 6.0 | 4.8 | 6.3 | 6.0 | 9.0 | 0.0 | 7.5 | 8.0 | 0.0 | 0.0 | 4.0 |  |  |  | ECHCG herbicidal rating ([3]; rate 0.1250 kg/ha): 9.0; GALAP herbicidal rating (GALAP (Galium aparine) [4]; rate 0.1250 kg/ha): 9.0; Preemergence herbicidal rating GALAP (GALAP (Galium aparine) [5]; [8]): 8.0; Preemergence herbicidal rating GALAP (GALAP (Galium aparine) [5]; [9]): 9.0; ZEAMX herbicidal rating (ZEAMX (Corn, Field); rate 0.1250 kg/ha): 8.5; TRZAWR herbicidal rating ([6]; rate 0.1250 kg/ha): 9.0; Preemergence herbicidal rating ORYSAT (ORYSAT (Rice, Tebonnet); [7]): 2.5; Preemergence herbicidal rating ORYSAT (ORYSAT (Rice, Tebonnet); [8]): 3.5; Preemergence herbicidal rating ORYSAT (ORYSAT (Rice, Tebonnet); [9]): 6.0 |
| Cn1c(C(F)(F)F)cc(=O)n(-c2ccc3snc(C4OCC(CS(C)(=O)=O)O4)c3c2)c1=O (single isomer, unassigned) [Compound 86, 1-methyl-3-[3-[4-[(methylsulfonyl)methyl]-1,3-dioxolan-2-yl]-1,2-benzisothiazol-5-yl]-6-(trifluoromethyl)uracil] | 4.0 | 5.0 | 9.0 | 9.0 | 3.0 | 4.0 | 4.0 | 2.5 | 3.0 | 8.0 | 9.0 |  |  |  |  |  |  |  |  |  | ECHORC herbicidal rating ([1]; rate 0.0320 kg/ha): 0.0; ECHORC herbicidal rating ([1]; rate 0.1250 kg/ha): 3.0; SAGPY herbicidal rating ([2]; rate 0.0320 kg/ha): 0.0; SAGPY herbicidal rating ([2]; rate 0.1250 kg/ha): 0.0; Preemergence herbicidal rating GALAP (GALAP (Galium aparine) [5]; [8]): 4.0; Preemergence herbicidal rating GALAP (GALAP (Galium aparine) [5]; [9]): 9.0; Preemergence herbicidal rating ORYSAT (ORYSAT (Rice, Tebonnet); [7]): 5.0; Preemergence herbicidal rating ORYSAT (ORYSAT (Rice, Tebonnet); [8]): 7.0; Preemergence herbicidal rating ORYSAT (ORYSAT (Rice, Tebonnet); [9]): 9.0 |
| CCCC1COC(c2nsc3ccc(-n4c(=O)cc(C(F)(F)F)n(C)c4=O)cc23)O1 (stereo not shown) [Compound 77, 1-methyl-3-[3-(4-propyl-1,3-dioxolan-2-yl)-1,2-benzisothiazol-5-yl]-6-(trifluoromethyl)uracil] | 4.0 | 4.0 | 4.0 | 7.0 |  | 3.0 | 3.5 | 2.0 | 3.5 | 9.0 | 5.0 | 0.0 | 5.0 | 9.0 | 0.0 | 0.0 | 5.0 | 7.0 | 5.0 | 5.0 | Preemergence herbicidal rating GALAP (GALAP (Galium aparine) [5]; Rate 0.2500 kg/ha): 9.0; Preemergence herbicidal rating ORYSAT (ORYSAT (Rice, Tebonnet); Rate 0.2500 kg/ha): 5.5 |
